Earlier results in PubChem BioAssay AID1259409 (Chemical Carcinogenesis Research Information System (CCRIS), 2018).

Tested on: rodent chemically induced tumor inhibition, incidence and multiplicity
Assay: CCRIS tumor inhibitor studies

O=C1O[C@H]([C@@H](O)CO)C(O)=C1O
tumour outcome (control, treated, inhibition, significance) (Carcinogen: DIETHYLNITROSAMINE, 55-18-5, Dose [Inhibitor]: 0, 15 G/L IN DRINKING WATER FOR DURATION OF STUDY BEGINNING 1 D PRIOR TO FIRST CARCINOGEN DOSE (STUDY DURATION: 6 MO), Route [Inhibitor]: ORAL, Species: RAT, Strain/Sex: BD6/FEMALE, Target Tissue: Type of Lesion: ESOPHAGUS: TUMOR, Dose [Carcinogen]: 80 MG/KG BW 1/WK FOR 10 WK, Promoter: NONE USED): 35%, 24%, 31%, not significant
tumour outcome (control, treated, inhibition, significance) (Carcinogen: DIETHYLNITROSAMINE, 55-18-5, Dose [Inhibitor]: 0, 15 G/L IN DRINKING WATER FOR DURATION OF STUDY BEGINNING 1 D PRIOR TO FIRST CARCINOGEN DOSE (STUDY DURATION: 6 MO), Route [Inhibitor]: ORAL, Species: RAT, Strain/Sex: BD6/FEMALE, Target Tissue: Type of Lesion: LIVER: TUMOR, Dose [Carcinogen]: 80 MG/KG BW 1/WK FOR 10 WK, Promoter: NONE USED): 100%, 92%, 8%, not significant
tumour outcome (control, treated, inhibition, significance) (Carcinogen: DIETHYLNITROSAMINE, 55-18-5, Dose [Inhibitor]: 0, 15 G/L IN DRINKING WATER FOR DURATION OF STUDY BEGINNING 2 D POST CARCINOGEN TREATMENT (STUDY DURATION: 6 MO), Route [Inhibitor]: ORAL, Species: RAT, Strain/Sex: BD6/FEMALE, Target Tissue: Type of Lesion: ESOPHAGUS: TUMOR, Dose [Carcinogen]: 80 MG/KG BW 1/WK FOR 10 WK, Promoter: NONE USED): 35%, 28%, 20%, not significant
tumour outcome (control, treated, inhibition, significance) (Carcinogen: DIETHYLNITROSAMINE, 55-18-5, Dose [Inhibitor]: 0, 15 G/L IN DRINKING WATER FOR DURATION OF STUDY BEGINNING 2 D POST CARCINOGEN TREATMENT (STUDY DURATION: 6 MO), Route [Inhibitor]: ORAL, Species: RAT, Strain/Sex: BD6/FEMALE, Target Tissue: Type of Lesion: LIVER: TUMOR, Dose [Carcinogen]: 80 MG/KG BW 1/WK FOR 10 WK, Promoter: NONE USED): 100%, 100%, 0%, not significant
tumour outcome (control, treated, inhibition, significance) (Carcinogen: DIETHYLSTILBESTROL, 56-53-1, Dose [Inhibitor]: 1 G/KG OR 2.5 G/KG OF DIET BEGINNING 2 D PRIOR TO FIRST CARCINOGEN IMPLANT AND CONTINUING FOR DURATION OF STUDY (STUDY D, Route [Inhibitor]: ORAL, Species: HAMSTER, Strain/Sex: SYRIAN/MALE, Target Tissue: Type of Lesion: KIDNEY: CARCINOMA, Dose [Carcinogen]: 90% OF 40 MG PELLET (OTHER 10% CHOLESTEROL) 2 D AFTER START OF AGENT TREATMENT AND AGAIN 3 MO LATER, Promoter: NONE USED): 11/13 (85%), 14/29 (48%), 44%, p<0.05
tumour outcome (control, treated, inhibition, significance) (Carcinogen: DIETHYNITROSAMINE, 55-18-5, Dose [Inhibitor]: 0, 3 G/L IN DRINKING WATER FOR DURATION OF STUDY BEGINNING 2 D POST CARCINOGEN TREATMENT (STUDY DURATION: 6 MO), Route [Inhibitor]: ORAL, Species: RAT, Strain/Sex: BD6/FEMALE, Target Tissue: Type of Lesion: LIVER: TUMOR, Dose [Carcinogen]: 80 MG/KG BW 1/WK FOR 10 WK, Promoter: NONE USED): 100%, 100%, 0%, not significant
tumour outcome (control, treated, inhibition, significance) (Carcinogen: ETHYLUREA, 625-52-5, SODIUM NITRITE, 7632-00-0, Carcinogen: ETHYLUREA, 625-52-5, SODIUM NITRITE, 7632-00-0, Dose [Inhibitor]: 200 MG/KG BW ADMINISTERED INTRAGASTRICALLY ONCE ON D 15 OF GESTATION SIMULTANEOUSLY WITH CARCINOGEN TREATMENT (STUDY DUR, Route [Inhibitor]: TRANSPLACENTAL, Species: HAMSTER, Strain/Sex: SYRIAN/FEMALE, Target Tissue: Type of Lesion: PERIPHERAL NERVOUS SYSTEM: NEOPLASM, Dose [Carcinogen]: 200 MG ETHYLUREA/KG BW AND 100 MG SODIUM NITRITE/KG BW IG ONCE, Promoter: NONE USED): 9/18 (50%), 0/18 (0%), 100%, not calculated
tumour outcome (control, treated, inhibition, significance) (Carcinogen: ETHYLUREA, 625-52-5, SODIUM NITRITE, 7632-00-0, Carcinogen: ETHYLUREA, 625-52-5, SODIUM NITRITE, 7632-00-0, Dose [Inhibitor]: 200 MG/KG BW ADMINISTERED INTRAGASTRICALLY ONCE ON D 15 OF GESTATION SIMULTANEOUSLY WITH CARCINOGEN TREATMENT (STUDY DUR, Route [Inhibitor]: TRANSPLACENTAL, Species: HAMSTER, Strain/Sex: SYRIAN/MALE, Target Tissue: Type of Lesion: PERIPHERAL NERVOUS SYSTEM: NEOPLASM, Dose [Carcinogen]: 200 MG ETHYLUREA/KG BW AND 100 MG SODIUM NITRITE/KG BW IG ONCE, Promoter: NONE USED): 6/18 (33%), 0/24 (0%), 100%, not calculated
tumour outcome (control, treated, inhibition, significance) (Carcinogen: FIBERGLASS DUST, Dose [Inhibitor]: 400 MG/KG BW 1/3 D FOR 10 TREATMENTS STARTING 3 D POST CARCINOGEN TREATMENT (STUDY DURATION: 90 D), Route [Inhibitor]: INTRAPERITONEAL, Species: MOUSE, Strain/Sex: STRAIN-A/MALE, Target Tissue: Type of Lesion: LUNG: TUMOR, Dose [Carcinogen]: 300 MG IN 100 G OF STERILIZED PINE SAWDUST BEDDING FOR 30 D, Promoter: NONE USED): 6/12 (50%), 1/12 (8%), 84%, not calculated
tumour outcome (control, treated, inhibition, significance) (Carcinogen: N,N-DIETHYLNITROSAMINE, 55-18-5, Dose [Inhibitor]: 4.5 MG/100 KG DIET FOR 58 WK STARTING SIMULTANEOUSLY WITH CARCINOGEN AND PROMOTER TREATMENT AND CONTINUING FOR DURATION, Route [Inhibitor]: ORAL, Species: HAMSTER, Strain/Sex: SYRIAN/MALE, Target Tissue: Type of Lesion: LARYNX: TUMORS, Dose [Carcinogen]: 10 MG (TOTAL DOSE) IN 0.9% SALINE 1/WK FOR 12 WK, Promoter: CIGARETTE SMOKE): 20/30 (67%), 17/30 (57%), 15%, not significant
tumour outcome (control, treated, inhibition, significance) (Carcinogen: N,N-DIETHYLNITROSAMINE, 55-18-5, Dose [Inhibitor]: 4.5 MG/100 KG DIET FOR 58 WK STARTING SIMULTANEOUSLY WITH CARCINOGEN AND PROMOTER TREATMENT AND CONTINUING FOR DURATION, Route [Inhibitor]: ORAL, Species: HAMSTER, Strain/Sex: SYRIAN/MALE, Target Tissue: Type of Lesion: NASAL CAVITY: TUMORS, Dose [Carcinogen]: 10 MG (TOTAL DOSE) IN 0.9% SALINE 1/WK FOR 12 WK, Promoter: CIGARETTE SMOKE): 14/29 (48%), 8/30 (27%), 44%, not significant
tumour outcome (control, treated, inhibition, significance) (Carcinogen: N,N-DIETHYLNITROSAMINE, 55-18-5, Dose [Inhibitor]: 4.5 MG/100 KG DIET FOR 58 WK STARTING SIMULTANEOUSLY WITH CARCINOGEN AND PROMOTER TREATMENT AND CONTINUING FOR DURATION, Route [Inhibitor]: ORAL, Species: HAMSTER, Strain/Sex: SYRIAN/MALE, Target Tissue: Type of Lesion: TRACHEA: TUMORS, Dose [Carcinogen]: 10 MG (TOTAL DOSE) IN 0.9% SALINE 1/WK FOR 12 WK, Promoter: CIGARETTE SMOKE): 30/30 (100%), 29/30 (97%), 3%, not significant
tumour outcome (control, treated, inhibition, significance) (Carcinogen: N-(4-(5-NITRO-2-FURYL)-2-THIAZOLYL)FORMAMIDE, 24554-26-5, Dose [Inhibitor]: 250 MG/100 CC DRINKING WATER STARTING SIMULTANEOUSLY WITH CARCINOGEN TREATMENT AND CONTINUING FOR DURATION OF STUDY (STU, Route [Inhibitor]: ORAL, Species: MOUSE, Strain/Sex: C3H/FEMALE, Target Tissue: Type of Lesion: URINARY BLADDER: TRANSITIONAL CELL CARCINOMA, Dose [Carcinogen]: 0.1% IN DIET FOR DURATION OF STUDY, Promoter: NONE USED): 41/41 (100%), 12/13 (92%), 8%, p<0.7
